Data: PMC11547804, “Synthesis and Evaluation of Phenyltriazole-Deoxynojirimycin Hybrids as Potent α-Glucosidase Inhibitors” (Molecules, 2024)
“Also recorded” adds a separate entry of the source. Where two headings read alike, the source gives them in different places.

Columns and labels:
[1] = biological target: T1, α-glucosidase (yeast) (Saccharomyces cerevisiae, UniProt P53341); assay: α-glucosidase (yeast) inhibition assay, p-nitrophenyl glycopyranoside substrate; assay type: biochemical; settings: 50 mM phosphate buffer pH 6.8, 37 °C; mean ± SD, three independent experiments
T1 construct: purchased Sigma Chemical Co., St. Louis, MO, USA
T1 sequence (P53341 whole entry): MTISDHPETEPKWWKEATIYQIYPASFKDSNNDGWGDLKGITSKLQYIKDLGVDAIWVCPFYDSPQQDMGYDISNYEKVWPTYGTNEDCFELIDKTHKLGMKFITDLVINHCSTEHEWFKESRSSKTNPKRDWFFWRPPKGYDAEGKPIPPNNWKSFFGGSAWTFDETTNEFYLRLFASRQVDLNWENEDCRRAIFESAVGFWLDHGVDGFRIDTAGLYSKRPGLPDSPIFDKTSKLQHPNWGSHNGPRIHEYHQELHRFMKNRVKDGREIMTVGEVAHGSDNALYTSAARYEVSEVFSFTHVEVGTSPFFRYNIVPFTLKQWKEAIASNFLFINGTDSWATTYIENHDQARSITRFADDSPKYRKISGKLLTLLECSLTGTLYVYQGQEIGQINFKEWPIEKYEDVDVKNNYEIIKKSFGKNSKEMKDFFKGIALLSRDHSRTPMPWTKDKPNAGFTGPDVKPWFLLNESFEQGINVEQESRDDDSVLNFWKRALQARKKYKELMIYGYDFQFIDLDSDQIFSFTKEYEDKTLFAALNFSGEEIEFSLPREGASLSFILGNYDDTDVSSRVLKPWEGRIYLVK
Method: (§1) Compounds 10–20 (except 15 for solubility reasons) were evaluated by in vitro α-glucosidase (yeast), β-glucosidase (almonds) inhibition studies.
(§2) Two glycosidases, α-glucosidase (yeast) and β-glucosidase (almonds), and their corresponding substrates, p-nitrophenyl glycopyranosides, were purchased from Sigma Chemical Co., St. Louis, MO, USA. Other commercial reagents and solvents were used as received. Reactions were monitored by Thin Layer Chromatography (TLC) analyses using silica gel GF254 plates bearing a 0.25 mm layer. Visualization of compounds was detected by short-wave UV fluorescence (λ = 254 nm) and/or by dipping into 5% phosphomolybdic acid in EtOH. Column chromatography was carried out by silica gel (200–300 mesh). NMR spectra (^1H and ^13C) were recorded with Bruker AV III 500 MHz spectrometer using CDCl3 (22–33), D2O (10–13, 16–20) or CD3OD (14, 15) as solvents. High-resolution mass spectra (HRMS) were obtained by direct injection on a mass spectrometer (Thermo Scientific LTQ Orbitrap XL, Waltham, MA, USA) equipped with an electrospray ion source in positive mode (see Supplementary Materials).
(§3) The α-glucosidase and β-glucosidase assays were performed in 50 mM phosphate buffer (pH 6.8) at 37 °C. The inhibitors were pre-incubated with the enzyme solutions at 37 °C for 15 min, and then the corresponding substrates were added. After the enzymatic reaction was incubated at 37 °C for 15 min., it was quenched by adding Na2CO3. Absorbance readings were taken on a BioTek µQuant Microplate Spectrophotometer at 405 nm. Experiments were performed in triplicate. The IC50 values were determined graphically using GraphPad Prism (version 8.0).

[2] = biological target: β-glucosidase (almonds); assay: β-glucosidase (almonds) inhibition assay, p-nitrophenyl glycopyranoside substrate; assay type: biochemical; settings: 50 mM phosphate buffer pH 6.8, 37 °C; mean ± SD, three independent experiments
Method: as §1, §2, §3

[3] = Cell proliferation / viability CCK-8 assay; assay type: cell-based; settings: human, HL60 cells; HL60, 50 µM, 24 h, CCK-8
Method: (§4) Compounds 9, 13 and 17–20 with better inhibitory activity on α-glucosidase were selected to study the effect on cell viability and proliferation by CCK-8 assay (Figure 5). […] When viability was measured at 50 µM for these compounds, the viability of compound 19 was 96.97% compared with 20.89% for compound 20. […] With the increase in compound concentration, a lot of dead cells and more cell debris were observed, and the culture medium became muddy for 20, which was not obviously observed for 9, 13 and 17–19.
(§5) HL60 cells in DMEM supplemented with 10% fetal bovine serum were seeded at a density of 5 × 10^3 cells/well in a 96-well plate and incubated at 37 °C for 24 h. The medium was substituted with fresh medium containing a range of concentrations of inhibitors in DMSO and cultured for another 24 h. CCK-8 solution (10 µL) was added to each well incubated at 37 °C for 1 h. The absorbance was read on a BioTek µQuant Microplate Spectrophotometer at 450 nm. The cell vitality curve was depicted with GraphPad Prism (version 8.0).

[4] = system: HL60 cells; assay: Cell proliferation / viability CCK-8 assay; assay type: cell-based; settings: for cell survival rate: HL60, 80 µM, 24 h, CCK-8
Method: as §4, §5

[5] = biological target: β-glucosidase (almonds); settings: data for 7–9 and DNJ included for comparative purposes; cited from earlier work
[6] = biological target: T1, α-glucosidase (yeast); parameters: method as in doi:10.1080/07328303.2020.1837150; settings: data for 7–9 and DNJ included for comparative purposes; cited from earlier work
[7] = biological target: T2, yeast α-glucosidase (Saccharomyces cerevisiae, UniProt P53341); assay: Kinetics of enzyme inhibition (Lineweaver–Burk plots); assay type: biochemical; settings: for mode of inhibition: Lineweaver–Burk plot, same Vmax; for Ki: substrate para-nitrophenyl α-D-glucopyranoside, pH 6.8, 37 °C, read-out: inhibition constant (Ki)
T2 construct: purchased Sigma Chemical Co., St. Louis, MO, USA
T2 sequence (P53341 whole entry): as above
Method: In order to gain further insight into how these hybrids interact with α-glucosidase, the mode of inhibition for compounds 18 and 19 as representative examples was analyzed using the Lineweaver–Burk plot (Figure 2).
The inhibition types of the selected compounds were determined from Lineweavere–Burk plots. […] The enzyme reaction was performed according to the conditions described above.
Figure 2 Double-reciprocal plots of the inhibition kinetics of yeast α-glucosidase by compounds 18 (a), 19 (b).

| IC50 [1] [µM] | IC50 [2] [µM] | SMILES | other results |
| --- | --- | --- | --- |
| 14 ± 1 | 62 ± 4 | CCCc1ccc(-c2cn(CCCCCCN3C[C@H](O)[C@@H](O)[C@H](O)[C@H]3CO)nn2)cc1 [Compound 17, (2R,3R,4R,5S)-2-(hydroxymethyl)-1-(6-(4-(4-propylphenyl)-1H-1,2,3-triazol-1-yl)hexyl)piperidine-3,4,5-triol] |  |
| 130 ± 9 | 130 ± 5 | OC[C@@H]1[C@@H](O)[C@H](O)[C@@H](O)CN1CCCCCCn1cc(-c2ccccc2)nn1 [Compound 14, (2R,3R,4R,5S)-2-(hydroxymethyl)-1-(6-(4-phenyl-1H-1,2,3-triazol-1-yl)hexyl)piperidine-3,4,5-triol] |  |
| 68 ± 4 | 65 ± 2 | CCc1ccc(-c2cn(CCCCCCN3C[C@H](O)[C@@H](O)[C@H](O)[C@H]3CO)nn2)cc1 [Compound 16, (2R,3R,4R,5S)-1-(6-(4-(4-ethylphenyl)-1H-1,2,3-triazol-1-yl)hexyl)-2-(hydroxymethyl)piperidine-3,4,5-triol] |  |
| 16 ± 2 | 77 ± 4 | CCCCCCc1ccc(-c2cn(CCCCCCN3C[C@H](O)[C@@H](O)[C@H](O)[C@H]3CO)nn2)cc1 [Compound 20, (2R,3R,4R,5S)-1-(6-(4-(4-hexylphenyl)-1H-1,2,3-triazol-1-yl)hexyl)-2-(hydroxymethyl)piperidine-3,4,5-triol] | viability at 24 h, 50 µM [3]: 20.9%; cytotoxicity ([4]; HL60, 50 µM): exhibited cytotoxicity; also recorded: cytotoxic; cell survival rate [4]: 6.66% |
| 171 ± 25 | 739 ± 78 | CCCc1ccc(-c2cn(CCCCN3C[C@H](O)[C@@H](O)[C@H](O)[C@H]3CO)nn2)cc1 [Compound 11, (2R,3R,4R,5S)-2-(hydroxymethyl)-1-(4-(4-(4-propylphenyl)-1H-1,2,3-triazol-1-yl)butyl)piperidine-3,4,5-triol] |  |
| 244 ± 32 | > 1000 | CCc1ccc(-c2cn(CCCCN3C[C@H](O)[C@@H](O)[C@H](O)[C@H]3CO)nn2)cc1 [Compound 10, (2R,3R,4R,5S)-1-(4-(4-(4-ethylphenyl)-1H-1,2,3-triazol-1-yl)butyl)-2-(hydroxymethyl)piperidine-3,4,5-triol] |  |
| 82 ± 5 | 529 ± 41 | CCCCCCc1ccc(-c2cn(CCCCN3C[C@H](O)[C@@H](O)[C@H](O)[C@H]3CO)nn2)cc1 [Compound 13, (2R,3R,4R,5S)-1-(4-(4-(4-hexylphenyl)-1H-1,2,3-triazol-1-yl)butyl)-2-(hydroxymethyl)piperidine-3,4,5-triol] |  |
|  |  | CCCCCc1ccc(-c2cn(CCCCN3C[C@H](O)[C@@H](O)[C@H](O)[C@H]3CO)nn2)cc1 [Compound 9] | IC50 [6]: 63 ± 6 µM; IC50 [5]: 665 ± 57 µM |
| 105 ± 9 | 770 ± 92 | CCCCc1ccc(-c2cn(CCCCN3C[C@H](O)[C@@H](O)[C@H](O)[C@H]3CO)nn2)cc1 [Compound 12, (2R,3R,4R,5S)-1-(4-(4-(4-butylphenyl)-1H-1,2,3-triazol-1-yl)butyl)-2-(hydroxymethyl)piperidine-3,4,5-triol] |  |
|  |  | OC[C@@H]1[C@@H](O)[C@H](O)[C@@H](O)CN1CCCCn1cc(-c2ccccc2)nn1 [Compound 7] | IC50 [6]: 551 ± 25 µM; IC50 [5]: > 1000 µM |
|  |  | Cc1ccc(-c2cn(CCCCN3C[C@H](O)[C@@H](O)[C@H](O)[C@H]3CO)nn2)cc1 [Compound 8] | IC50 [6]: 324 ± 65 µM; IC50 [5]: > 1000 µM |

| SMILES | IC50 [1] [µM] | IC50 [2] [µM] | other results |
| --- | --- | --- | --- |
| CCCCc1ccc(-c2cn(CCCCCCN3C[C@H](O)[C@@H](O)[C@H](O)[C@H]3CO)nn2)cc1 [Compound 18, (2R,3R,4R,5S)-1-(6-(4-(4-butylphenyl)-1H-1,2,3-triazol-1-yl)hexyl)-2-(hydroxymethyl)piperidine-3,4,5-triol] | 11 ± 1 | 69 ± 5 | mode of inhibition [7]: competitive; Ki [7]: 3.8 µM |
| CCCCCc1ccc(-c2cn(CCCCCCN3C[C@H](O)[C@@H](O)[C@H](O)[C@H]3CO)nn2)cc1 [Compound 19, (2R,3R,4R,5S)-2-(hydroxymethyl)-1-(6-(4-(4-pentylphenyl)-1H-1,2,3-triazol-1-yl)hexyl)piperidine-3,4,5-triol] | 11 ± 1 | 73 ± 7 | viability at 24 h, 50 µM [3]: 97%; cell survival rate [4]: 71.28%; mode of inhibition [7]: competitive; Ki [7]: 3.7 µM |
